What all share (test): MIC by broth microdilution
A general note: Dilution methods test growth across graded concentrations, often in twofold steps.

The test system of one experiment is Neisseria gonorrhoeae. It counts as cell-based. The note with it: Neisseria gonorrhoeae; internal code L997; 5% carbon dioxide, 48 hours; read-out: MIC of the compounds.
The subject of the next experiment is Staphylococcus aureus. It counts as cell-based. The note with it: Staphylococcus aureus; internal code L165; read-out: MIC of the compounds.
For a further experiment, the system named is Esch. coli K12 wild type. The class given is cell-based. The note with it: Escherichia coli, K12WILDTYPE, internal code G210, read-out: MIC of the compounds.
In experiment [1] the test system is Pseudomonas aerug. ATCC10145. The class given is cell-based, Pseudomonas aeruginosa. The note with it: Pseudomonas, ATCC10145; internal code L4; read-out: MIC of the compounds.
Experiment [2] deals with Enterococc. faecalis ATCC 7080. It counts as cell-based, Enterococcus faecalis. The note with it: Enterococcus faecalis, ATCC7080; internal code L149; read-out: MIC of the compounds.
A further experiment concerns Staph. aureus rifa-r^(2). The class given is cell-based. The note with it: Staphylococcus aureus, read-out: MIC of the compounds.
The subject of a further experiment is Escherichia coli. The class given is cell-based. The note with it: Escherichia coli; internal code L47; read-out: MIC of the compounds.
In experiment [3] the test system is Proteus vulgaris ATCC 881. The class given is cell-based. The note with it: Proteus vulgaris, ATCC881; internal code L79; read-out: MIC of the compounds.
The subject of a further experiment is Streptococcus pyogenes. The class given is cell-based. The note with it: Streptococcus pyogenes; internal code L49; read-out: MIC of the compounds.
Experiment [4] deals with Esch. coli K12 hyperpermeable. It counts as cell-based, Escherichia coli. The note with it: Escherichia coli, read-out: MIC of the compounds.
Experiment [5] deals with Propionibact. acnes ATCC 6919. It counts as cell-based, Propionibacterium acnes. The note with it: Cutibacterium acnes, ATCC6919; internal code L1014; anaerobic, 48 hours; read-out: MIC of the compounds.
The test system of experiment [6] is Bacteroides fragilis ATCC 23745. It counts as cell-based. The note with it: Bacteroides fragilis, ATCC23745; internal code L1010; anaerobic, 48 hours; read-out: MIC of the compounds.
In a further experiment the test system is Strept. pneumoniae. The class given is cell-based. The note with it: Streptococcus pneumoniae; internal code L44; read-out: MIC of the compounds.
Experiment [7] relates to Haemoph. influenzae ATCC 19418. The class given is cell-based, Haemophilus influenzae. The note with it: Haemophilus influenzae, ATCC19418; internal code L970; 5% carbon dioxide, 48 hours; read-out: MIC of the compounds.
For experiment [8], the system named is Staph. epidermidis ATCC 12228. The class given is cell-based. The note with it: Staphylococcus epidermidis, ATCC12228; internal code L147; read-out: MIC of the compounds.
The test system of experiment [9] is Esch. coli K12 rifa-r^(1). It counts as cell-based, Escherichia coli. The note with it: Escherichia coli, read-out: MIC of the compounds.
The test system of experiment [10] is Staph. haemolyticus rifa-r^(2). It counts as cell-based. The note with it: Staphylococcus haemolyticus, read-out: MIC of the compounds.

The structures appear in SMILES notation.

The results in this text go back to patent EP0700399B1, “36-DERIVATIVES OF RIFAMYCINS AND THEIR USE AS ANTIMICROBIAL AGENTS” (GRUPPO LEPETIT S.P.A., priority 1993, dated 1994).

With `CCN(CC)CC(=O)O[C@H]1[C@H](C)[C@H](O)[C@H](C)[C@@H](O)[C@@H](C)/C=C/C=C(/C)C(=O)NC2=CC(=O)c3c(c(O)c(C)c4c3C(=O)[C@@](C)(O/C=C/[C@H](OC)[C@H]1C)O4)C2=O` [Compound C12, 36-Diethylaminorifamycin S], the MIC amounted to 1 µg/mL in the experiment on Neisseria gonorrhoeae; 0.03 µg/mL in the experiment with Staphylococcus aureus; 64 µg/mL with Esch. coli K12 wild type; 32 µg/mL in experiment [1]; 0.25 µg/mL in [2]; 32 µg/mL with Staph. aureus rifa-r^(2). For the same molecule, the MIC is 32 µg/mL in the experiment with Escherichia coli; 8 µg/mL in [3]; 0.06 µg/mL with Streptococcus pyogenes; ≤ 0.13 µg/mL in [4]; 0.5 µg/mL in experiment [5]; 2 µg/mL in experiment [6]. For the same molecule, the MIC in the experiment with Strept. pneumoniae was 0.03 µg/mL; in [7], 1 µg/mL; in experiment [8], 0.008 µg/mL; in [9] it was > 128 µg/mL; in [10], 64 µg/mL.
